Laboratory results published in ChEMBL document CHEMBL3352773, “Synthesis and evaluation of the 2,4-diaminoquinazoline series as anti-tubercular agents” (Bioorg Med Chem, 2014).

Legend:
Assay type in all cases: functional
[1] = tested on: Mycobacterium tuberculosis; assay: Antituberculosis activity against Mycobacterium tuberculosis H37Rv RM7 C115W mutant assessed as complete growth inhibition after 5 days
[2] = tested on: Mycobacterium tuberculosis; assay: Antituberculosis activity against Mycobacterium tuberculosis H37Rv RM2 GT deletion at 175 to 176 mutant assessed as complete growth inhibition after 5 days
[3] = tested on: Mycobacterium tuberculosis; assay: Antituberculosis activity against Mycobacterium tuberculosis H37Rv RM1 IS6110 at nt 801 mutant assessed as complete growth inhibition after 5 days

Measured: MIC

FC(F)(F)c1ccc(CNc2nc(N3CCCCC3)nc3ccccc23)cc1
25 µM: all assays above
